Legend:
[1] = biological target: T1, T-type calcium channel α1H (Cav3.2) (Homo sapiens, UniProt O95180); assay: Two-electrode voltage clamp on Xenopus unfertilized oocytes expressing α1H T-type calcium channel; format: cell-based; conditions: test potential -20 mV from -90 mV, read-out: inhibitory effect (blocking percentage), Xenopus oocyte (α1H) at 100 μM
T1 construct: expressed in transfected cells; host or cells: Xenopus laevis unfertilized oocytes injected with cRNA (pGEM-HEA linearised with AflII, T7 transcription)
T1 sequence (O95180 whole entry): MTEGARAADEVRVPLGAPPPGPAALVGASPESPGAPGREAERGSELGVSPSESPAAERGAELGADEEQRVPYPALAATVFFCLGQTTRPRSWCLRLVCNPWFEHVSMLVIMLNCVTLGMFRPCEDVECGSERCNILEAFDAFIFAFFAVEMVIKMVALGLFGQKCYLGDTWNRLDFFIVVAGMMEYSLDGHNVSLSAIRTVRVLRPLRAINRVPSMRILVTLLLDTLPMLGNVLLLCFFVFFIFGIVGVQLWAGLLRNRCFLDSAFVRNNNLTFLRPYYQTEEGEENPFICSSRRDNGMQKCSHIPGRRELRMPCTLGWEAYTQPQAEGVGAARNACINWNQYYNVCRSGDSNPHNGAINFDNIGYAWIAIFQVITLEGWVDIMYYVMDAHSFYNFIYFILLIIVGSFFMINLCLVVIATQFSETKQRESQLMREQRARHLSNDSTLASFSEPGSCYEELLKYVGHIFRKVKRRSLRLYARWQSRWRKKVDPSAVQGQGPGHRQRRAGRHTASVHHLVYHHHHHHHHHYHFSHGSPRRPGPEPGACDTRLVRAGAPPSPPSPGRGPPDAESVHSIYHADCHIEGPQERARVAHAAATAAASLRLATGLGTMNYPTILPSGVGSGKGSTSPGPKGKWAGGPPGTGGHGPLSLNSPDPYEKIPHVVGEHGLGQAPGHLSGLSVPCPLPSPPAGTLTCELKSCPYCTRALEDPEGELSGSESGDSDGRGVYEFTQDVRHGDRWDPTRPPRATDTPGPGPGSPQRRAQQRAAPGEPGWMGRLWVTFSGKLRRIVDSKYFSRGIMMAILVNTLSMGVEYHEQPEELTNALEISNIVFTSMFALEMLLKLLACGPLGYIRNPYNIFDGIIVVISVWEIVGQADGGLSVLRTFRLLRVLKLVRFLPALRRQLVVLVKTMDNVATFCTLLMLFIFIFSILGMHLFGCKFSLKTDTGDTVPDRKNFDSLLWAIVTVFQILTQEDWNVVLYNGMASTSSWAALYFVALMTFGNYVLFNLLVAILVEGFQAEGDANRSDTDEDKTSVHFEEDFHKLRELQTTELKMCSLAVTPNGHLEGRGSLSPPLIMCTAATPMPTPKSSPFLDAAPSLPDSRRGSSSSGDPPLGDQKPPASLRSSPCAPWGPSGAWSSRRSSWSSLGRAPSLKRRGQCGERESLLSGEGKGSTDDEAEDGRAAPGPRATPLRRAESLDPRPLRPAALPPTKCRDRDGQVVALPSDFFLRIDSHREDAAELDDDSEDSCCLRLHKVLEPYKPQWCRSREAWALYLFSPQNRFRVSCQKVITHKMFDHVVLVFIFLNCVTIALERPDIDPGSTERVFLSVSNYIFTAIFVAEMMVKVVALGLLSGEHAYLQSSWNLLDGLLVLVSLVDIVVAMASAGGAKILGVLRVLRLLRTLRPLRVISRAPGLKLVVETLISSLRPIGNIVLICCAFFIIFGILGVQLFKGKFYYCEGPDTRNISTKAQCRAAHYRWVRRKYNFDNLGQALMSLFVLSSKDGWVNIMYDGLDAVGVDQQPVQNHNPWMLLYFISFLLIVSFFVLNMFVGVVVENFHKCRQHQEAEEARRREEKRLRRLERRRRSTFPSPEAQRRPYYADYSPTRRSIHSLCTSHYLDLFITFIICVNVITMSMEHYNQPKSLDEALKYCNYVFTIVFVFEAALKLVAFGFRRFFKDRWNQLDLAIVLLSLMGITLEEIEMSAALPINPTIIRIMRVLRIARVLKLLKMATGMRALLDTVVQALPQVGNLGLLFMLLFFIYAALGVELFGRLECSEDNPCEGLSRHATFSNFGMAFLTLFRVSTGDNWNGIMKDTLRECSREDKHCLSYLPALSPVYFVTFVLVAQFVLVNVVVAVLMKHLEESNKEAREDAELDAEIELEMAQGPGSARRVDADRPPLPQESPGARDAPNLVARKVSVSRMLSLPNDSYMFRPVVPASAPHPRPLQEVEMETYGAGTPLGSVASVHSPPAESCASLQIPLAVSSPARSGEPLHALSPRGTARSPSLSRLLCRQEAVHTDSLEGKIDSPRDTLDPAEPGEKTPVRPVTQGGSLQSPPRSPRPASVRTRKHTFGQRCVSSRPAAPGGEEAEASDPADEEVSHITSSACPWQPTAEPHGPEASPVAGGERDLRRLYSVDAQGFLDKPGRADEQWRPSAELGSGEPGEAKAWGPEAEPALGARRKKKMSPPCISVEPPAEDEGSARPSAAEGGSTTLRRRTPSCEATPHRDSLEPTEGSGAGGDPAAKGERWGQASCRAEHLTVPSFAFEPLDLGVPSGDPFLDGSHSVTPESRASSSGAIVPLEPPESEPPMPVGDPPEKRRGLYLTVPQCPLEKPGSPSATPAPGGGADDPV
Experimental: In order to express a gene encoding T-type calcium channel α1H (Cav3.2) (Cribbs, L. L. et al., Circ. Res., 1998, 83, 103-109) in unfertilized Xenopus oocytes, pGEM-HEA was treated with restriction enzyme AflII to obtain a DNA fragment containing 5′-terminal region having the T-type calcium channel cDNA (AF051946). cRNA having a corresponding sequence to that of the fragment was synthesized using T7 RNA polymerase according to the manufacturer's instructions (mMESSAGE mMACHINE kit, Ambion, Austin, U.S.A.). The synthesized cRNA was quantified by measuring the O.D. value with a spectrophotometer. At this time, unfertilized oocytes were prepared from female Xenopus laevis (Xenopus I, U.S.A.) according to the following method. After the frog's abdomen was incised by about 1 cm, three to four lobes were detached therefrom with scissors and separated into small pieces to which several oocytes were attached. The small pieces were hydrolyzed in OR solution (82.5 mM NaCl, 2.5 mM KCl, 1 mM MgCl2, 5 mM HEPES, pH 7.6) and supplemented with collagenase type IA (Sigma, U.S.A.) to remove defolliculation. After selecting healthy oocytes with a dissecting microscope, they were soaked in SOS solution (100 mM NaCl, 2 mM KCl, 1.8 mM CaCl2, 1 mM MgCl2, 5 mM HEPES, 2.5 mM pyruvate, […] gentamicin, pH 7.6) for 3 to 4 hours to revitalize them. 2 to 5 ng of cRNA was injected into each oocyte using Nano-injector. The oocytes were subjected to a test in order to examine the electrical properties of the channel expressed therefrom 4 to 5 days after the injection while being maintained at 18° C.
The current of the calcium channel expressed from the Xenopus unfertilized oocytes was measured according to a two-electrode voltage clamping method. The current was measured in 10 mM Ba^2+ solution (10 mM Ba(OH)2, 90 mM NaOH, 1 mM KCl, 0.1 mM EDTA, 5 mM HEPES, pH was adjusted to 7.4 with methanesulfonic acid). At this time, the voltage clamp and current measurement were regulated with an amplifier for unfertilized oocytes (Model OC-725C, Warner Instrument Corp., U.S.A.), and analog signals were converted into digital signals using Digidata 2000A (Analog-Digital converter, Axon Instrument). The acquisition, storage and analysis of all data were recorded in Pentium IV computer via pCLAMP8. The data were mainly collected at 5 KHz and filtered at 1 KHz (Model 902 filter; Frequency devices located at Harverhill, Mass., U.S.A.). The T-type current was generated by imposing test electric potential of −20 mV every 15 seconds on the unfertilized oocytes, the potential of which was fixed at −90 mV. A blocking percentage was calculated by comparing the […] before and after the drug treatment.

[2] = system: Na+ channel; assay: Patch clamp of sodium current in MPG (major pelvic ganglion) neurons; format: cell-based, rat; conditions: MPG neuron, 10 μM; for selectivity for the calcium channel versus the sodium channel: from Table 3; for Inhibitory effect, Na+ channel: n.i. = no inhibitory effect
Experimental: In order to examine the selectivity of the compound of the present invention for other ion channels, the inhibitory effects of KYS05001, KYS05041 and KYS05042 on […] and high voltage-activated Ca2+ channel (HVA) were measured according to a conventional method (Lee, J.-H. et al., J. Neurophysiol. 2002, 87, 2844-2850) using MPG (major pelvic ganglion).
Male Sprague-Dawley rats having about 250 g of an average body weight were employed as experimental animals. After the rats were anesthetized with sodium pentobarbital (50 mg/kg, i.p.), the abdomen was cut open immediately. MPG located on the left side of the prostate was extracted and then transferred in cold (4° C.) Hank's balanced salt solution (HBSS, GibcoBRL). The connective tissue encompassing the ganglion was stripped therefrom and a small gap was made carefully on the naked ganglion with a sharp knife. Then, the ganglion was cultured in 10 ml of modified Earle's balanced salt solution (EBSS, pH 7.4, GibcoBRL) supplemented with 0.7 mg/ml of collagenase (type D), 0.3 mg/ml of trypsin and 0.1 mg/ml of DNAse type I at 35° C. for 1 hour (Zhu et al., J. Physiol. Lond. 1995, 489, 363-375). At this time, 3.6 g/l of glucose and 10 mM HEPES were added to EBSS. After the cultivation was completed, the culture flask was shaken to separate call clusters into a single nerve cell and subjected to centrifugation at 1000 rpm with a clinical centrifuge (International Equipment Company, Mass., U.S.A.). The separated single nerve cells were re-suspended in MEM (GibcoBRL) supplemented with 10% fetal bovine serum, 1% glutamine and 1% penicillin/streptomycin. They were then spread on a polystyrene culture dish (35 mm) coated with poly-L-lysine. The culture dish was incubated at 37° C. humidified incubator (95% air-5% CO2) and the cells were used in the following experiment within 24 hours after the separation.
The voltage-dependent calcium and sodium current were recorded according to a typical patch clamping method using a patch clamp amplifier (Axopatch 1D, Axon Instruments, Foster City, Calif., U.S.A.) at a whole-cell ruptured configuration (Hamill et al., Pflügers Arch. 1981, 391, 85-100). An electrode was made from a borosilicate glass capillary tube (outer diameter; 1.65 mm, inner diameter; 1.2 mm, Corning 7052, Garner Glass Co., Claremont, Calif., U.S.A.) using P-97 Flaming-Brown micropipette puller (Sutter Instrument Co., Novato, Calif., U.S.A.) and forged smoothly by heating with a microforge. The electrode showing 1˜3 MΩ of resistance when filled with a solution was used for the following experiment. The culture dish containing the nerve cells was placed on an inverted microscope and the cell exterior solution was flowed into the dish at a flow rate of about 1˜2 ml/min. The membrane capacitance and series resistance were corrected by 80% or more with an amplifier. The voltage generation and record of calcium current were carried out using S4 software (provided by Dr. Stephen R. Ikeda, National Institute on Alcohol Abuse and Alcoholism, NIH, USA) equipped in Macintosh computer, which was connected to an analogue/digital converter (Digidata 1200, Axon Instruments Co.). The calcium current, which passed through a low band pass filter at 2˜5 kHz, was stored in Macintosh computer and analyzed with IGOR PRO (Wave-Metrics, Lake Oswego, Oreg., U.S.A.). All the experiments were conducted at a room temperature ranging from 20 to 22° C.
The electrode for measuring the calcium current was filled with the solution comprising 120 mM N-methyl-D-glucamine (NMG) methanesulfonate (MS), 20 mM tetraethylammonium (TEA)-MS, 20 mM HCl, 11 mM EGTA, 10 mM HEPES, 1 mM CaCl2, 4 mM MgATP, 0.3 mM Na2GTP and 14 mM tris-phosphocreatine (pH 7.2, 290 mOsm). The extracellular infusion fluid was composed of 140 mM MS, 145 mM TEA-OH, 10 mM HEPES, 15 mM glucose, 10 mM CaCl2 and 0.0003 mM tetrodotoxin (TTX, pH 7.4, 320 mOsm). […]

| SMILES | inhibition at 100 µM [1] [%] | selectivity for the calcium channel versus the sodium channel [2] | Inhibitory effect, Na+ channel [2] |
| --- | --- | --- | --- |
| Cc1ccc(S(=O)(=O)Nc2ccc(CNC(=O)CC3c4ccccc4N=C(N4CCCCC4)N3c3ccccc3)cc2)cc1 (stereo not drawn) [KYS05041, 4-{N-[4-(4-methylbenzenesulfonylamido)benzyl]acetamido}-3-phenyl-2-(piperidine-1-yl)-3,4-dihydroquinazoline] | 84.7 | higher selectivity for the calcium channel than the sodium channel | n.i.^b |
| O=C(CC1c2ccccc2N=C(N2CCCCC2)N1c1ccccc1)NCc1ccccc1 (stereo not drawn) [KYS05001] | 77 | higher selectivity for the calcium channel than the sodium channel | n.i.^b |
| O=C(CC1c2ccccc2N=C(N2CCCCC2)N1c1ccccc1)NCc1ccc(NS(=O)(=O)c2ccc(F)cc2)cc1 (stereo not drawn) [KYS05042, 4-{N-[4-(4-fluorobenzenesulfonylamido)benzyl]acetamido}-3-phenyl-2-(piperidine-1-yl)-3,4-dihydroquinazoline] | 80.5 | higher selectivity for the calcium channel than the sodium channel | n.i.^b |

Reference: patent publication US7271260B2, “3,4-dihydroquinazoline derivatives as T-type calcium channel blockers and method of preparing the same” (Korea Institute of Science and Technology, priority 2004, dated 2007)
